Measurements reported in ChEMBL document CHEMBL4177612, “Discovery of tranylcypromine analogs with an acylhydrazone substituent as LSD1 inactivators: Design, synthesis and their biological evaluation” (Bioorg Med Chem Lett, 2017).
The source made the active and inactive calls. No cut-off for these calls is given here.

Tests used:
Type in all cases: functional, cell-based
MGC-803 [1] = assay: Anti-migratory activity against human MGC803 cells after 24 hrs by DAPI staining based transwell assay
MGC-803 [2] = assay: Antiinvasive activity against human MGC803 cells at 0.25 to 1 uM after 24 hrs by DAPI staining based matrigel coated transwell assay
MGC-803 [3] = assay: Effect on LSD1 level in human MGC803 cells at 1 to 4 uM after 4 days by immunofluorescence analysis

CCN(CC)c1ccc(/C=N/NC(=O)CN[C@@H]2C[C@H]2c2ccc(F)c(F)c2)c(O)c1
Activity (MGC-803 [1]): Dose-dependent effect
Activity (MGC-803 [2]): Active
Activity (MGC-803 [3]): inactive
